Assay results reported in US20170190671A1, “BIS(ARYL)CATECHOL DERIVATIVES AS HERBICIDES” (E I DU PONT DE NEMOURS AND COMPANY, priority 2014, published 2017).

How the values were obtained:
Assay type in all cases: in vivo
[1] = system: barnyardgrass (Echinochloa crus-galli); test: Test B flooded paddy; conditions: Echinochloa crus-galli, 336 h; 250 g ai/ha, Flood, 13 to 15 days, scale 0 (no effect) to 100 (complete control); read-out: Plant response rating, Barnyardgrass
Summary of the method: (§1)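 Compound was added to standing water 3 cm above soil, flood maintained, and plants held in a greenhouse before visual scoring against controls at 13 to 15 days.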

[2] = system: ducksalad (Heteranthera limosa); test: Test B flooded paddy; conditions: Heteranthera limosa, 336 h; 250 g ai/ha, Flood, 13 to 15 days, scale 0 (no effect) to 100 (complete control); read-out: Plant response rating, Ducksalad
Summary of the method: as §1

[3] = system: rice (Oryza sativa); test: Test B flooded paddy; conditions: Oryza sativa, 336 h; 250 g ai/ha, Flood, 13 to 15 days, scale 0 (no effect) to 100 (complete control); read-out: Plant response rating, Rice
Summary of the method: as §1

[4] = system: sedge, umbrella (small-flower umbrella sedge, Cyperus difformis); test: Test B flooded paddy; conditions: Cyperus difformis, 336 h; 250 g ai/ha, Flood, 13 to 15 days, scale 0 (no effect) to 100 (complete control); read-out: Plant response rating, Sedge, Umbrella
Summary of the method: as §1

[5] = system: Italian ryegrass (Lolium multiflorum); test: Test A preemergence; conditions: Lolium multiflorum, pre-emergence, 240 h
Summary of the method: (§2)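 Compounds in non-phytotoxic solvent with surfactant applied as soil spray preemergence, or postemergence to plants 2-10 cm at one- to two-leaf stage, in loam/sand. After approximately 10 days in greenhouse, injury rated visually versus untreated controls, 0 (no effect) to 100 (complete control).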

[6] = system: barnyardgrass (Echinochloa crus-galli); test: Test A preemergence; conditions: Echinochloa crus-galli, pre-emergence, 240 h; for pest or weed control at 125 g/ha: 125 g ai/ha
Summary of the method: as §2

[7] = system: giant foxtail (Setaria faberii); test: Test A preemergence; conditions: Setaria faberi, pre-emergence, 240 h; for pest or weed control at 125 g/ha: 125 g ai/ha
Summary of the method: as §2

[8] = system: kochia (Kochia scoparia); test: Test A preemergence; conditions: Bassia scoparia, pre-emergence, 240 h
Summary of the method: as §2

[9] = system: pigweed (Amaranthus retroflexus); test: Test A preemergence; conditions: Amaranthus retroflexus, pre-emergence, 240 h; for pest or weed control at 125 g/ha: 125 g ai/ha
Summary of the method: as §2

[10] = system: ragweed (common ragweed, Ambrosia elatior); test: Test A preemergence; conditions: Ambrosia artemisiifolia, pre-emergence, 240 h
Summary of the method: as §2

[11] = system: Italian ryegrass (Lolium multiflorum); test: Test A postemergence; conditions: Lolium multiflorum, post-emergence, 240 h, 0 to 100 scale, read-out: Plant response rating, Ryegrass, Italian
Summary of the method: as §2

[12] = system: barnyardgrass (Echinochloa crus-galli); test: Test A postemergence; conditions: Echinochloa crus-galli, post-emergence, 240 h, 0 to 100 scale, read-out: Plant response rating, Barnyardgrass; for pest or weed control at 125 g/ha: 125 g ai/ha
Summary of the method: as §2

[13] = system: blackgrass (Alopecurus myosuroides); test: Test A postemergence; conditions: Alopecurus myosuroides, post-emergence, 240 h, 0 to 100 scale, read-out: Plant response rating, Blackgrass
Summary of the method: as §2

[14] = system: corn (Zea mays); test: Test A postemergence; conditions: Zea mays, post-emergence, 240 h, 0 to 100 scale; for Corn plant response rating (crop injury, 0 = no effect, 100 = complete kill) at 125 g/ha: 125 g ai/ha
Summary of the method: as §2

[15] = system: galium (catchweed bedstraw, Galium aparine); test: Test A postemergence; conditions: Galium, post-emergence, 240 h, 0 to 100 scale, read-out: Plant response rating, Galium
Summary of the method: as §2

[16] = system: giant foxtail (Setaria faberii); test: Test A postemergence; conditions: Setaria faberi, post-emergence, 240 h, 0 to 100 scale, read-out: Plant response rating, Foxtail, Giant; for pest or weed control at 125 g/ha: 125 g ai/ha
Summary of the method: as §2

[17] = system: kochia (Kochia scoparia); test: Test A postemergence; conditions: Bassia scoparia, post-emergence, 240 h, 0 to 100 scale, read-out: Plant response rating, Kochia
Summary of the method: as §2

[18] = system: pigweed (Amaranthus retroflexus); test: Test A postemergence; conditions: Amaranthus retroflexus, post-emergence, 240 h, 0 to 100 scale, read-out: Plant response rating, Pigweed; for pest or weed control at 125 g/ha: 125 g ai/ha
Summary of the method: as §2

[19] = system: ragweed (common ragweed, Ambrosia elatior); test: Test A postemergence; conditions: Ambrosia artemisiifolia, post-emergence, 240 h, 0 to 100 scale, read-out: Plant response rating, Ragweed
Summary of the method: as §2

[20] = system: wheat (Triticum aestivum); test: Test A postemergence; conditions: Triticum aestivum, post-emergence, 240 h, 0 to 100 scale, read-out: Plant response rating, Wheat; for plant injury at 125 g/ha: 125 g ai/ha
Summary of the method: as §2

[21] = 0 to 100 scale, read-out: Plant response rating, Barnyardgrass

N#Cc1cccc(Oc2ncc(Br)cn2)c1Oc1ncc(Cl)cn1 [Compound 5, 3-[(5-bromo-2-pyrimidinyl)oxy]-2-[(5-chloro-2-pyrimidinyl)oxy]benzonitrile]
pest or weed control at 250 g/ha [1]: 35% | pest or weed control at 250 g/ha [2]: 100% | plant injury at 250 g/ha [3]: 0% | pest or weed control at 250 g/ha [4]: 75% | pest or weed control at 31 g/ha ([5]; 31 g ai/ha, 0 to 100 scale (0 no effect, 100 complete control), read-out: Ryegrass, Italian plant response rating): 0% | pest or weed control at 125 g/ha ([5]; 125 g ai/ha, 0 to 100 scale, read-out: Plant response rating, Ryegrass, Italian): 60% | pest or weed control at 31 g/ha ([6]; 31 g ai/ha, 0 to 100 scale (0 no effect, 100 complete control), read-out: Barnyardgrass plant response rating): 20% | pest or weed control at 125 g/ha [6, 21]: 80% | pest or weed control at 31 g/ha ([7]; 31 g ai/ha, 0 to 100 scale (0 no effect, 100 complete control), read-out: Foxtail, Giant plant response rating): 90% | pest or weed control at 125 g/ha ([7]; 0 to 100 scale, read-out: Plant response rating, Foxtail, Giant): 100% | pest or weed control at 31 g/ha ([8]; 31 g ai/ha, 0 to 100 scale (0 no effect, 100 complete control), read-out: Kochia plant response rating): 100% | pest or weed control at 125 g/ha ([8]; 125 g ai/ha, 0 to 100 scale, read-out: Plant response rating, Kochia): 100% | pest or weed control at 31 g/ha ([9]; 31 g ai/ha, 0 to 100 scale (0 no effect, 100 complete control), read-out: Pigweed plant response rating): 100% | pest or weed control at 125 g/ha ([9]; 0 to 100 scale, read-out: Plant response rating, Pigweed): 100% | pest or weed control at 31 g/ha ([10]; 31 g ai/ha, 0 to 100 scale (0 no effect, 100 complete control), read-out: Ragweed plant response rating): 0% | pest or weed control at 125 g/ha ([10]; 125 g ai/ha, 0 to 100 scale, read-out: Plant response rating, Ragweed): 20% | pest or weed control at 31 g/ha ([11]; 31 g ai/ha): 20% | pest or weed control at 125 g/ha ([11]; 125 g ai/ha): 50% | pest or weed control at 31 g/ha ([12]; 31 g ai/ha): 20% | pest or weed control at 125 g/ha [12]: 90% | pest or weed control at 31 g/ha ([13]; 31 g ai/ha): 40% | pest or weed control at 125 g/ha ([13]; 125 g ai/ha): 90% | Corn plant response rating (crop injury, 0 = no effect, 100 = complete kill) at 31 g/ha ([14]; 31 g ai/ha): 20% | Corn plant response rating (crop injury, 0 = no effect, 100 = complete kill) at 125 g/ha [14]: 80% | pest or weed control at 31 g/ha ([15]; 31 g ai/ha): 50% | pest or weed control at 125 g/ha ([15]; 125 g ai/ha): 90% | pest or weed control at 31 g/ha ([16]; 31 g ai/ha): 10% | pest or weed control at 125 g/ha [16]: 90% | pest or weed control at 31 g/ha ([17]; 31 g ai/ha): 70% | pest or weed control at 125 g/ha ([17]; 125 g ai/ha): 100% | pest or weed control at 31 g/ha ([18]; 31 g ai/ha): 70% | pest or weed control at 125 g/ha [18]: 100% | pest or weed control at 31 g/ha ([19]; 31 g ai/ha): 20% | pest or weed control at 125 g/ha ([19]; 125 g ai/ha): 40% | plant injury at 31 g/ha ([20]; 31 g ai/ha): 20% | plant injury at 125 g/ha [20]: 40%

Clc1cnc(Oc2cccc(Br)c2Oc2ncc(Cl)cn2)nc1 [Compound 19, 2,2′-[[3-bromo-1,2-phenylene]bis(oxy)]bis[5-chloropyrimidine]]
pest or weed control at 250 g/ha [1]: 15% | pest or weed control at 250 g/ha [2]: 95% | plant injury at 250 g/ha [3]: 25% | pest or weed control at 250 g/ha [4]: 85% | pest or weed control at 125 g/ha [6, 21]: 80% | pest or weed control at 500 g/ha ([6]; 500 g ai/ha, 0 to 100 scale, read-out: Plant response rating, Barnyardgrass): 90% | pest or weed control at 125 g/ha ([7]; 0 to 100 scale (0 no effect, 100 complete control), read-out: Foxtail, Giant plant response rating): 100% | pest or weed control at 500 g/ha ([7]; 500 g ai/ha, 0 to 100 scale, read-out: Plant response rating, Foxtail, Giant): 100% | pest or weed control at 125 g/ha ([9]; 0 to 100 scale (0 no effect, 100 complete control), read-out: Pigweed plant response rating): 100% | pest or weed control at 500 g/ha ([9]; 500 g ai/ha, 0 to 100 scale, read-out: Plant response rating, Pigweed): 100% | pest or weed control at 125 g/ha [12]: 70% | pest or weed control at 500 g/ha ([12]; 500 g ai/ha): 100% | Corn plant response rating (crop injury, 0 = no effect, 100 = complete kill) at 125 g/ha [14]: 50% | Corn plant response rating (crop injury, 0 = no effect, 100 = complete kill) at 500 g/ha ([14]; 500 g ai/ha): 60% | pest or weed control at 125 g/ha [16]: 80% | pest or weed control at 500 g/ha ([16]; 500 g ai/ha): 90% | pest or weed control at 125 g/ha [18]: 100% | pest or weed control at 500 g/ha ([18]; 500 g ai/ha): 100% | plant injury at 125 g/ha [20]: 50% | plant injury at 500 g/ha ([20]; 500 g ai/ha): 60%
